US20040265323A1, “Compositions comprising pathogen elicited epithelial chemoattractant (eicosanoid hepoxilin A3), inhibitors thereof and methods of use thereof” (priority 2003, published 2004)
Where “and” joins values, the source holds several entries; their conditions need not be identical. Equal values may be shown once. Entries after “also recorded” stand apart in the source; their conditions may differ.

What was measured:
[1] = system: PMN transmigration across T84 cell monolayers; experiment: PMN transepithelial migration to imposed gradients of lipids across T84 monolayers; format: cell-based, human; settings: for PMN transepithelial migration (PEEC activity) induced by added lipid: imposed gradients across T84 cell monolayers, basolateral-to-apical
Protocol: Crude preparations of PEEC were collected from the apical surface of polarized T84 cell monolayers following infection with S. typhimurium SL1344 as previously described (McCormick et al., 1998). For these experiments, T84 intestinal epithelial cells (passages 45 to 65) were grown in a 1:1 mixture of Dulbecco-Vogt modified Eagles medium and Ham's F-12 medium supplemented with 15 mM Hepes buffer (pH 7.5), 14 mM NaHCO3, 40 mg/liter penicillin, 8 mg/liter ampicillin, 90 mg/liter streptomycin and 5% newborn calf serum. Polarized monolayers of T84 cells were formed and maintained on 0.33 cm^2 ring-supported collagen-coated polycarbonate filters (Costar Corp., Cambridge, Mass.) as previously described (Madara et al., 1992) with recently detailed modifications (Dharmsathaphorn and Madara, 1990). T84 cell monolayers reached a steady-state resistance 4 to 6 days after plating with some variability largely related to cell passage number. Cell culture inserts of inverted monolayers, used to study transmigration of PMN in the physiological basolateral-to-apical direction, were constructed as previously described (Madara et al., 1992; Dharmsathaphorn and Madara, 1990; Nash et al., 1991).
(§1) It was further examined if hepoxilin A3 acts in a gradient fashion to drive PMN migration from the basolateral to the apical epithelial surface. For these experiments, the physiologically directed (basolateral-to-apical) PMN transepithelial migration assay using cell culture inserts of inverted T84 monolayers has been used (McCormick et al., 1993; Parkos et al., 1992). Human PMN were isolated from normal volunteers, as described elsewhere (Parkos et al., 1992; Henson and Oades, 1975). PMN transmigration results were represented as PMN cell equivalents (CE) derived from a daily standard PMN dilution curve. PMN which completely traversed the monolayer were represented as the number of PMN (CE/ml in a total volume of 1 ml). Values were expressed as the mean and SD of an individual experiment done in triplicate repeated at least 3 times.
Arachidonic acid is the initial substrate used by a variety of metabolic pathways involving lipoxygenase (LO) activities—enzymes that add hydroxyl groups at specific carbon atoms of this 20-carbon fatty acid. […] Therefore, in addition to hepoxilin A3, a wide range of arachidonic acid metabolites for their ability to incite the transmigration of PMNs across T84 monolayers in vitro was examined (Table 1). […] This is consistent with previous reports that LTB4 is capable of inducing PMN transmigration.

PMN [2] = experiment: PMN intracellular Ca2+ mobilization; format: cell-based, human
Excerpt: Further, crude PEEC preparations were collected from postinfected T84 cells monolayers. Samples were first passed through an Amicon ultra-filtration apparatus (Millipore Corp.; Bedford, Mass.) fitted with a 2,000 Da cut-off membrane. Filtrate components were bound to a Backerbond spe™ octadecyl extraction column (J. T. Baker; Philipsburg, N.J.) that was subsequently eluted with water, hexane, and finally methanol. The methanol fraction was dried under vacuum and resuspended in 50:50 (vol:vol) methanol:2 mM Tris HCl (pH 7.5) and injected onto a Vydac C18 (10 μm; 300 Å) semi-preparative column ([…]) equilibrated with 2 mM Tris-HCl (pH 7.5). A methanol gradient of 1-10% over 10 minutes, then 10-60% over 25 minutes, followed by 60-100% over 45 minutes (all at room temperature) was used to isolate active PEEC fractions. Active fractions, having no detectable absorbance at 280 nm and weak absorbance at 214 nm, were analyzed using a Genesis C18 (4 μm, 120 Å) analytical HPLC column (4.6×150 mm) equilibrated with 5 mM triethylamine/acetic acid (pH 7.2). […] (FIG. 2A and B).
(§2) To substantiate the notion that hepoxilin A3 was in fact the molecule responsible for PEEC bioactivity, it was examined whether synthetic hepoxilin A3 (BIOMOL, Plymouth Meeting, Pa.) could recapitulate PEEC bioactivity. […] Thus, authentic hepoxilin A3 recapitulates all known aspects of PEEC bioactivity consistent with the notion that hepoxilin A3 is in fact PEEC's active component.

PMN [3] = experiment: PMN degranulation assessed by elastase release; format: cell-based, human
Excerpt: as §2

[4] = system: PMN transmigration across T84 cell monolayers; experiment: Disruption of hepoxilin A3 gradient by basolateral addition, PMN transepithelial migration across T84 monolayers; format: cell-based, human; settings: 5 μg/ml basolateral; migration induced by S. typhimurium, recombinant SipA or imposed gradients of hepoxilin A3
Excerpt: as §1
First, any potential gradient by adding excess synthetic hepoxilin A3 to the basolateral compartment was counteracted. […] The establishment of a hepoxilin A3 gradient was next measured quantitatively. […] Hepoxilin A3 decay in both compartments was exponential and the above stated T1/2 values were determined by analyzing the slope of a best-fit line to a log-linear analysis of each data set. […] Instead, the extent of recovery of hepoxilin A3 from the basolateral compartment following an apical application of 4500 pmoles was measured.

T84 monolayers [5] = experiment: Hepoxilin A3 degradation in apical and basolateral compartments of T84 monolayers; format: in vitro ADME, human; settings: for time to 50% loss of intact compound (T1/2), average: average of two experiments
Protocol: (§3) First, any potential gradient by adding excess synthetic hepoxilin A3 to the basolateral compartment was counteracted. […] The establishment of a hepoxilin A3 gradient was next measured quantitatively. […] Hepoxilin A3 decay in both compartments was exponential and the above stated T1/2 values were determined by analyzing the slope of a best-fit line to a log-linear analysis of each data set. Because of the complex degradation events occurring in both the apical and basolateral compartments, no attempt was made to calculate a transport rate. Instead, the extent of recovery of hepoxilin A3 from the basolateral compartment following an apical application of 4500 pmoles was measured.

T84 monolayers [6] = experiment: Recovery of hepoxilin A3 in basolateral compartment after apical application to T84 monolayers; format: in vitro ADME, human; settings: apical application of 4500 pmoles, over 90 minutes
Protocol: as §3

[7] = system: P. aeruginosa-induced PMN transepithelial migration, A549 cells; experiment: P. aeruginosa-induced PMN transepithelial migration across A549 cell monolayers; format: cell-based, human; settings: excess hepoxilin A3 added to basolateral compartment; data not shown
Excerpt: It was further determined whether similar hepoxilin A3 recruitment of PMN by apically attached pathogens might occur at other mucosal surfaces. Pseudomonas aeruginosa is the most prominent bacterial spp. present during chronic infection in cystic fibrosis and chronic obstructive pulmonary disease patients and is accompanied by severe inflammation, including the emigration of PMN to the airway lumen (Pizurki et al., 2000; Jahn et al., 2000; Weiss, S. 1989). As a model for the airway epithelium the A549 cell line was used. This cell line is capable of forming a polarized barrier, and is widely employed as a model for the airway epithelial surface (Smart and Casale, 1994). […] Finally, the secretion of hepoxlin A3 in vitro was quantified using this A549 model system. For these experiments, A549 lung epithelial cells (ATTC) were grown in F12K media (Invitrogen) with 10% FBS, and maintained in culture similar to the T84 cell line. The wild type P. aeruginosa (PAO1) was used for infection of A549 after overnight aerobic growth (Luria broth) at 37° C.

[8] = Stability in acidified acetonitrile; format: physicochemical; settings: overnight incubation in acid
Protocol: Molecules of the 5-LO, 8-LO, 12-LO and 15-LO pathways of arachadonic metabolism were analyzed by LC/MS breakdown patterns and compared to PEEC. […] Methylation of PEEC samples and hepoxilin A3 also provided similar ion spectra (data not shown). […] PEEC activity was also observed to have other chemical properties similar to hepoxilin A3, such as being labile in the presence of acetonitrile/0.1% trifluoroacetic acid (FIG. 3D).

Compound: CCCCC/C=C\C[C@@H]1O[C@H]1/C=C/C(O)C/C=C\CCCC(=O)O (some centres unmarked) [hepoxilin A3]
- PMN transepithelial migration induced by imposed gradients ([1]; hepoxilin A3 0.5-5 μg/ml, FIG. 4A): induce PMN transepithelial migration in a dose dependent fashion
- PMN transepithelial migration (PEEC activity) induced by added lipid [1]: induced transepithelial migration
- PMN transepithelial migration (PEEC activity) induced by added lipid ([1]; listed as Hepoxilin A3): saturated response
- PMN intracellular Ca2+ mobilization (PMN [2]): elicited an increase in [Ca^2+] in PMN
- intracellular Ca2+ in PMN (PMN [2]; 5 μg/ml, FIG. 4B): increase in intracellular Ca^2+
- PMN degranulation (PMN [3]): did not induce PMN degranulation; also recorded: not observed
- effect of basolateral addition on PMN transepithelial migration [4]: significantly diminished PMN transepithelial migration
- time to 50% loss of intact compound (T1/2), single experiments (T84 monolayers [5]; apical chamber): 1.28 h and 1.45 h
- time to 50% loss of intact compound (T1/2), average (T84 monolayers [5]; apical chamber of T84 monolayers): 1.37 h
- time to 50% loss of intact compound (T1/2), single experiments (T84 monolayers [5]; basolateral compartment): 0.817 h and 0.625 h
- time to 50% loss of intact compound (T1/2), average (T84 monolayers [5]; basolateral compartment of T84 monolayers): 0.717 h
- amount of intact compound recovered from the basolateral compartment (T84 monolayers [6]): low but detectable amount and low
- P. aeruginosa-induced PMN transepithelial migration with gradient disruption [7]: inhibited
- stability in acetonitrile/0.1% trifluoroacetic acid [8]: labile
